{"source": "patent US12435066B2", "about": "“Substituted tricyclic compounds” (LUPIN LIMITED, priority 2019, dated 2025)", "key": {"pERK in DLD1 cells": {"system": "pERK in DLD1 cells", "test": "ERK phosphorylation assay after EGF stimulation", "assay_type": "cell-based", "settings": "Homo sapiens, DLD-1, compound 2 h, 200 ng/ml hEGF 5 minutes, alphascreen pERK, read-out: ERK phosphorylation inhibition IC50", "method_in_brief": "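DLD1 cells pretreated 2 h with compound, then stimulated 5 minutes with 200 ng/ml hEGF. Lysates assayed for ERK1/2 p-T202/Y204 by AlphaScreen SureFire, read after 2 h at 25-28° C.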"}, "DLD-1 cell line": {"system": "DLD-1 cell line", "test": "Colony formation assay (single agent activity)", "assay_type": "cell-based", "settings": "Homo sapiens, 168 h, 7 days of drug treatment, crystal violet", "description": "Example-129: Colony Formation Assay Protocol (Single Agent Activity)\nDLD-1/MIA PaCa-2 cells were seeded at a density of 300/500 cells per well respectively in 48 well tissue culture plate and cells were allowed to settle overnight (16 to 20 h). On the following day, cells were treated with different concentrations of test or reference compound and the assay plates were incubated under standard cell culture conditions (37° C. with 5% CO2). After 7 days of drug treatment, media was removed from each well and plates were washed with PBS. Colonies were stained with crystal violet solution for 2-5 min. Plate was then washed carefully under tap water and air dried. For quantitation, 200 μL destaining solution containing 10% Glacial acetic acid was added to each well and crystal violet from the colonies was allowed to solubilize for 20-30 min on plate shaker. After solubilization, absorbance of the extracted stain was recorded in BioTek Synergy Neo II plate reader at 590 nm. Absorbance values were directly proportional to colony growth."}, "hSOS1 and hKRASG12C": {"target": "T1, hSOS1 and hKRASG12C (Homo sapiens, UniProt Q07889)", "T1 sequence (Q07889 564-1049)": "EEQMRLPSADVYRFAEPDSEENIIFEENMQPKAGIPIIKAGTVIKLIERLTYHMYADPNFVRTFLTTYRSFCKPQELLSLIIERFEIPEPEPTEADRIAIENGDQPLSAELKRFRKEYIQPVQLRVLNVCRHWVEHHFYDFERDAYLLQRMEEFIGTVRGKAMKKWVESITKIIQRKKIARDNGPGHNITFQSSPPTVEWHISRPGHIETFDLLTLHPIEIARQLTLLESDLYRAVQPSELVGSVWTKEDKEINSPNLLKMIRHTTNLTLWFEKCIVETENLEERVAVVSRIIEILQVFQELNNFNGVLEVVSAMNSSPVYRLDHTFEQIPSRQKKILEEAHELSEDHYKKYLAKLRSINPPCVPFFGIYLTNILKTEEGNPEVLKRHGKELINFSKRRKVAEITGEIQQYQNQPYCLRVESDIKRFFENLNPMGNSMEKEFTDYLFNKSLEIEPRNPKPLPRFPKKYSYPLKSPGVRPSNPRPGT", "test": "biochemical", "procedure": "Interaction assay was conducted to evaluate the ability of the compounds to disrupt the protein-protein interactions between hSOS1 and hKRASG12C. Inhibitory effect of compounds on GST-hSOS1, 564-1049aa expressed and purified in-house and HIS-hKRASG12C (R06-32DH, SignalChem) interaction was assessed using HTRF detection technology in biochemical assay. Compounds were pre-incubated with 10-50 nM working solution of hSOS1 per well of a 384 well plate (Perkin Elmer, Cat #6007290) for 10 min at 20° C. in the assay buffer containing 5 mM HEPES, pH 7.4, 150 mM NaCl, 10 mM EDTA, 1 mM DTT, 0.05% BSA fraction V and 0.0025% Igepal. Reaction was initiated by adding 100-300 nM working solution of hKRASG12C in assay buffer. Total assay volume was 15 μL. Reaction was continued for 30-60 min at 20° C. Then detection solution containing MAb Anti-GST-d2 (#61GSTDLA, Cisbio BioAssays) and MAb Anti-HIS-Tb (#61HISTLA, Cisbio BioAssays), all prepared in HTRF detection buffer (#61DB10RDF, Cisbio BioAssays) was added and further incubated for 30-60 min at 20° C. HTRF signal was recorded in PHERAStar microplate reader. Ratio of signal obtained at 665 nm and 620 nm was used to compute the percent inhibition of compound utilizing the following formula:\nPositive control=hSOS1+hKRASG12C+MAb Anti-GST-d2+Mab Anti-HIS-Tb Negative control=hKRASG12C+MAb Anti-GST-d2+MAb Anti-HIS-Tb"}, "[1]": {"target": "T2, hSOS1 mediated nucleotide exchange on hKRASG12C (Homo sapiens, UniProt Q07889)", "T2 sequence (Q07889 564-1049)": "T1 sequence (Q07889 564-1049)", "test": "biochemical", "procedure": "Example-127: Guanine Nucleotide Exchange Assay (GNEA)\nGNEA assay was conducted to evaluate the effects of compounds on the nucleotide exchange on hKRASG12C mediated by hSOS1. Inhibitory effect of compounds on HIS-hSOS1, 564-1049aa mediated GTP loading onto GST-hKRASG12C, 1-169aa both expressed and purified in-house was assessed using HTRF detection technology in biochemical assay. Compounds were pre-incubated with hSOS1 working solution containing 10-50 nM hSOS1 and 200 nM EDA-GTP-DY-647P1 (Custom manufactured, Jena Biosciences) per well of a 384 well plate (Perkin Elmer, Cat #6007290) for 10 min at 20° C. in the assay buffer containing 10 mM HEPES, pH 7.4, 150 mM NaCl, 5 mM MgCl2, 1 mM DTT, 0.05% BSA fraction V and 0.0025% Igepal. Reaction was initiated by adding working solution of hKRASG12C containing 25-125 nM hKRASG12C and MAb Anti-GST-Tb (#61GSTTLA, Cisbio BioAssays) in assay buffer. Total assay volume was 15 μL. Reaction was continued for 30-60 min at 20° C. HTRF signal was recorded in PHERAStar microplate reader. Ratio of signal obtained at 665 nm and 620 nm was used to compute the percent inhibition of compound as follows.\nWhere, Positive control=hSOS1+EDA-GTP-DY-647P1+hKRASG12C+MAb Anti-GST-Tb Negative control=EDA-GTP-DY-647P1+hKRASG12C+MAb Anti-GST-Tb"}, "[2]": {"system": "MIA PaCa-2 human pancreatic cancer xenograft", "test": "Tumor growth inhibition in subchronic xenograft model", "assay_type": "in vivo", "settings": "MIA PaCa-2 xenograft in nude mice, 50 mg/kg b.i.d.", "description": "In vivo efficacy of compound 87 was evaluated in MIA PaCa-2 human pancreatic cancer xenograft model in nude mice.\n20×10^6 MIA PaCa-2 cells were injected subcutaneously in the presence of PBS and matrigel in 1:1 ratio in nude mice. The tumor-bearing mice were randomized once the tumors reached an average volume of approximately 154-159 mm^3 (Tumor volume range 107-248 mm^3). The mice were divided into the following groups (n=7-8/group): Vehicle control and compound 87 (50 mg/kg; b.i.d.)."}}, "data": [{"smiles": "Cc1nc(N[C@H](C)c2cccc(C(F)(F)[C@](C)(O)CO)c2F)c2cc(N3CCOCC3)c3c(c2n1)CCC3", "note": "(racemic) [Compound 82a, (R/S)-3,3-difluoro-3-(2-fluoro-3-((R/S)-1-((2-methyl-6-morpholino-8,9-dihydro-7H-cyclopenta[h]quinazolin-4-yl)amino)ethyl)phenyl)-2-methylpropane-1,2-diol]", "values": [{"measurement": "IC50", "setting": "pERK in DLD1 cells", "value": "1 to 200", "unit": "nM"}, {"measurement": "IC50", "setting": "DLD-1 cell line", "value": "500 to 6000", "unit": "nM"}, {"measurement": "IC50", "setting": "hSOS1 and hKRASG12C", "value": "1 to 10", "unit": "nM"}, {"measurement": "IC50", "setting": "[1]", "value": "1 to 30", "unit": "nM"}]}, {"smiles": "Cc1nc(N[C@H](C)c2cc(N)cc(C(F)(F)F)c2)c2cc(N3CCOCC3=O)c3c(c2n1)CCC3", "note": "[Compound 83, (R)-4-(4-((1-(3-amino-5-(trifluoromethyl)phenyl)ethyl)amino)-2-methyl-8,9-dihydro-7H-cyclopenta[h]quinazolin-6-yl)morpholin-3-one]", "values": [{"measurement": "IC50", "setting": "pERK in DLD1 cells", "value": "1 to 200", "unit": "nM"}, {"measurement": "IC50", "setting": "hSOS1 and hKRASG12C", "value": "11 to 20", "unit": "nM"}, {"measurement": "IC50", "setting": "[1]", "value": "71 to 130", "unit": "nM"}]}, {"smiles": "Cc1nc(N[C@H](C)c2cc(N)cc(C(F)(F)F)c2)c2cc(N3CCC(O)(CO)CC3)c3c(c2n1)CCC3", "note": "[Compound 84, (R)-1-(4-((1-(3-amino-5-(trifluoromethyl)phenyl)ethyl)amino)-2-methyl-8,9-dihydro-7H-cyclopenta[h]quinazolin-6-yl)-4-(hydroxymethyl)piperidin-4-ol]", "values": [{"measurement": "IC50", "setting": "pERK in DLD1 cells", "value": "1 to 200", "unit": "nM"}, {"measurement": "IC50", "setting": "hSOS1 and hKRASG12C", "value": "1 to 10", "unit": "nM"}, {"measurement": "IC50", "setting": "[1]", "value": "1 to 30", "unit": "nM"}]}, {"smiles": "Cc1nc(N[C@H](C)c2cccc(C(F)(F)C(C)(C)O)c2F)c2cc(N3CCC(O)(CO)CC3)c3c(c2n1)CCC3", "note": "[Compound 85, (R)-1-(4-((1-(3-(1,1-difluoro-2-hydroxy-2-methylpropyl)-2-fluorophenyl)ethyl)amino)-2-methyl-8,9-dihydro-7H-cyclopenta[h]quinazolin-6-yl)-4-(hydroxymethyl) piperidin-4-ol]", "values": [{"measurement": "IC50", "setting": "pERK in DLD1 cells", "value": "1 to 200", "unit": "nM"}, {"measurement": "IC50", "setting": "hSOS1 and hKRASG12C", "value": "1 to 10", "unit": "nM"}, {"measurement": "IC50", "setting": "[1]", "value": "1 to 30", "unit": "nM"}]}, {"smiles": "Cc1nc(N[C@H](C)c2cc(N)cc(C(F)(F)F)c2)c2cc(-c3ccc(=O)n(C)c3)c3c(c2n1)CCC3", "note": "[Compound 87, (R)-5-(4-((1-(3-amino-5-(trifluoromethyl)phenyl)ethyl)amino)-2-methyl-8,9-dihydro-7H-cyclopenta[h]quinazolin-6-yl)-1-methylpyridin-2(1H)-one]", "values": [{"measurement": "IC50", "setting": "pERK in DLD1 cells", "value": "1 to 200", "unit": "nM"}, {"measurement": "IC50", "setting": "DLD-1 cell line", "value": "500 to 6000", "unit": "nM"}, {"measurement": "% tumor growth inhibition", "setting": "[2]", "value": "more than 70%"}, {"measurement": "IC50", "setting": "hSOS1 and hKRASG12C", "value": "1 to 10", "unit": "nM"}, {"measurement": "IC50", "setting": "[1]", "value": "31 to 70", "unit": "nM"}]}, {"smiles": "Cc1nc(N[C@H](C)c2cc(N)cc(C(F)(F)F)c2)c2cc(N3CCOCC3)c3c(c2n1)CC(C)(C)O3", "note": "[Compound 113, (R)—N-(1-(3-amino-5-(trifluoromethyl)phenyl)ethyl)-2,8,8-trimethyl-6-morpholino-8,9-dihydrofuro[2,3-h]quinazolin-4-amine]", "values": [{"measurement": "IC50", "setting": "pERK in DLD1 cells", "value": "1 to 200", "unit": "nM"}, {"measurement": "IC50", "setting": "hSOS1 and hKRASG12C", "value": "1 to 10", "unit": "nM"}, {"measurement": "IC50", "setting": "[1]", "value": "1 to 30", "unit": "nM"}]}, {"smiles": "Cc1nc(N[C@H](C)c2cc(N)cc(C(F)(F)F)c2)c2cc(N3CC4(COC4)C3)c3c(c2n1)CC(C)(C)O3", "note": "[Compound 114, (R)—N-(1-(3-amino-5-(trifluoromethyl)phenyl)ethyl)-2,8,8-trimethyl-6-(2-oxa-6-azaspiro[3.3]heptan-6-yl)-8,9-dihydrofuro[2,3-h]quinazolin-4-amine]", "values": [{"measurement": "IC50", "setting": "pERK in DLD1 cells", "value": "1 to 200", "unit": "nM"}, {"measurement": "IC50", "setting": "hSOS1 and hKRASG12C", "value": "1 to 10", "unit": "nM"}, {"measurement": "IC50", "setting": "[1]", "value": "31 to 70", "unit": "nM"}]}, {"smiles": "Cc1nc(N[C@H](C)c2cc(N)cc(C(F)F)c2)c2cc(N3CCOCC3)c3c(c2n1)CC(C)(C)O3", "note": "[Compound 115, (R)—N-(1-(3-amino-5-(difluoromethyl)phenyl)ethyl)-2,8,8-trimethyl-6-morpholino-8,9-dihydrofuro[2,3-h]quinazolin-4-amine]", "values": [{"measurement": "IC50", "setting": "pERK in DLD1 cells", "value": "1 to 200", "unit": "nM"}, {"measurement": "IC50", "setting": "hSOS1 and hKRASG12C", "value": "1 to 10", "unit": "nM"}, {"measurement": "IC50", "setting": "[1]", "value": "31 to 70", "unit": "nM"}]}, {"smiles": "Cc1nc(N[C@H](C)c2cccc(C(F)(F)C(C)(C)O)c2F)c2cc(C3(O)CCOCC3)c3c(c2n1)CCC3", "note": "[Compound 119, (R)-4-(4-((1-(3-(1,1-difluoro-2-hydroxy-2-methylpropyl)-2-fluorophenyl)ethyl)amino)-2-methyl-8,9-dihydro-7H-cyclopenta[h]quinazolin-6-yl)tetrahydro-2H-pyran-4-ol]", "values": [{"measurement": "IC50", "setting": "pERK in DLD1 cells", "value": "1 to 200", "unit": "nM"}, {"measurement": "IC50", "setting": "hSOS1 and hKRASG12C", "value": "11 to 20", "unit": "nM"}, {"measurement": "IC50", "setting": "[1]", "value": "31 to 70", "unit": "nM"}]}, {"smiles": "COc1cc2c(N[C@H](C)c3cccc(C(F)(F)CO)c3F)nc(C)nc2c2c1N(C)CCO2", "note": "[Compound 121, (R)-2,2-difluoro-2-(2-fluoro-3-(1-((6-methoxy-2,7-dimethyl-8,9-dihydro-7H-[1,4]oxazino[3,2-h]quinazolin-4-yl)amino)ethyl)phenyl)ethan-1-ol]", "values": [{"measurement": "IC50", "setting": "pERK in DLD1 cells", "value": "1 to 200", "unit": "nM"}, {"measurement": "IC50", "setting": "hSOS1 and hKRASG12C", "value": "1 to 10", "unit": "nM"}, {"measurement": "IC50", "setting": "[1]", "value": "1 to 30", "unit": "nM"}]}]}
